Assay results as given in patent US20220127297A1, “Novel Antibacterial 3"-Derivatives Of 4,6-Disubstituted 2,5-Dideoxystreptamine Aminoglycoside Antibiotics” (AGILeBiotics B.V., priority 2018, published 2022).

Experiments:
Experiment in all cases: MIC determination at Uppsala University
Assay type in all cases: cell-based
A. baumanii 195N (a) = conditions: Acinetobacter baumannii, AAC(3)Ia, ANT(3″)Ia, APH(3″)Ib, APH(3′)VI, APH(6)Id
From the text: (§1) 3.4.1 MIC Determination at Uppsala University (Sweden)
(§2) Tested reference compounds. Amikacin disulfate (Cat. No. A1774, Sigma Aldrich), Apramycin sulfate (Cat. No. A2024, Sigma Aldrich) and Gentamicin sulfate (Cat. No. G1914, Sigma Aldrich).
(§3) Bacterial strains/isolates. All assayed laboratory and clinical strains (P. aeruginosa PA01, A. baumanii ATCC 19606, A. baumanii 195N(a), A. baumanii 48F, E. coli C1162, E. coli C1181, M. morgannii S49 and P. stuartii B8-1) were from the IMI ND4BB ENABLE consortium strain collection. ATCC laboratory strains were acquired directly from the American Type Culture Collection. Clinical strains used were previously published (M Juhas, et al. J. Antimicrob. Chemother., 74 (4), 944-952 (2019); D. Hughes et al., Antimicrob. Agents Chemother., 47 (10), 3222-3232 (2003)) and were resistance genotyped within the ENABLE consortium.
(§4) Culture media and equipment. Water (Thermo Scientific, R05819); Mueller-Hinton II broth (BD Ref. 212322); sterile round-bottom 96-well plates (Thermo Scientific, 262162); Sensititre Nephelometer (ThermoFisher Scientific, V3011); 0.5 McFarland Standard (ThermoFisher Scientific, E1041); sterile polyester film (VWR, 391-1251).
(§5) Compound preparation. MIC assay procedure follows the CLSI M07 standard method (Clinical and Laboratory Standards Institute (CLSI); Methods for dilution antimicrobial susceptibility tests for bacteria that grow aerobically; approved standard—eleventh edition, M07-A10, Vol. 38, No. 2, 2018). Test compounds were received as solids and were dissolved in water to a concentration of 10 mg/mL of active compound. […] This solution was serially diluted in 2-fold steps in the first 10 columns of sterile round-bottom 96-well plates, while the final two columns were filled with Mueller-Hinton II broth without added compound for use as positive and negative growth controls.
(§6) Inoculum preparation. Inoculums were prepared by suspending several colonies freshly streaked culture of test strains in 5 mL of sterile 0.9% NaCl. The cell density of the inoculum solution was assessed and adjusted using a Sensititre Nephelometer and a 0.5 McFarland Standard. The inoculum was diluted 1:100 in Mueller-Hinton II broth and 50 μL of this inoculum solution was added to 50 μL of the test compound solutions yielding a concentration range of 64-0.125 μg/mL. The plates were sealed with sterile polyester film and stationarily incubated at 37° C. for 18 hours.
(§7) MIC determination. The MIC value was determined by visual inspection of bacterial growth within 96-well plates. The lowest concentration completely inhibiting growth was reported as the MIC for each strain and compound combination.

A. baumanii 48F = conditions: Acinetobacter baumannii; A. boumanii 48F; ANT(2″)Ia, APH(3″)-Ib, APH(3′)-VIa, APH(6)-Id
From the text: as §1, §2, §3, §4, §5, §6, §7

A. baumanii ATCC 19606 = conditions: Acinetobacter baumannii, ATCC19606, AMEs: WT
From the text: as §1, §2, §3, §4, §5, §6, §7

E. coli C1162 = conditions: Escherichia coli, APH(3′)-Ia
From the text: as §1, §2, §3, §4, §5, §6, §7

E. coli C1181 = conditions: Escherichia coli, ANT(3″)-Ia, APH(3′)-Ia
From the text: as §1, §2, §3, §4, §5, §6, §7

M. morgannii S49 = conditions: Morganella morganii, AAC(3)-IId, ANT(3″), APH(3″)-Ib, APH(3′)-Ia, APH(6)-Id
From the text: as §1, §2, §3, §4, §5, §6, §7

P. aeruginosa PAO1 = conditions: Pseudomonas aeruginosa, AMEs: WT
From the text: as §1, §2, §3, §4, §5, §6, §7

P. stuartii B8-1 = conditions: Providencia stuartii, B81, AAC(3)-Ic, ANT (3″)Ia, APH(3′)-IIa, APH(3′)-IIb, APH(3′)-VI, APH(6)-Ic
From the text: as §1, §2, §3, §4, §5, §6, §7

Structure (SMILES): CN[C@@H]1[C@@H](O[C@H]2O[C@H](CO)[C@@H](N)[C@H](O)[C@H]2O)OC2C[C@@H](N)[C@@H](O[C@H]3[C@H](O)[C@@H](O)[C@H](N)C[C@@H]3N)OC2[C@@H]1O (some centres unmarked) [Apramycin, apramycin, reference compound]
- MIC90 (A. baumanii 195N (a)): 32 µg/mL
- MIC90 (A. baumanii 48F): 32 µg/mL
- MIC90 (A. baumanii ATCC 19606): 32 µg/mL
- MIC90 (E. coli C1162): 8 µg/mL
- MIC90 (E. coli C1181): 8 µg/mL
- MIC90 (M. morgannii S49): 8 µg/mL
- MIC90 (P. aeruginosa PAO1): 8 µg/mL
- MIC90 (P. stuartii B8-1): 8 µg/mL
